Measurements published in PMC10572522, “A Designed Analog of an Antimicrobial Peptide, Crabrolin, Exhibits Enhanced Anti-Proliferative and In Vivo Antimicrobial Activity” (International Journal of Molecular Sciences, 2023).
Residues, ends and D or L forms follow the SMILES beside them.

Key:
[1] = system: human colorectal carcinoma cell line HCT-116; experiment: Anti-proliferative assay (MTT); assay type: cell-based; conditions: HCT-116, MTT, 24 h
Protocol: (§1) The human non-small-cell lung cancer line, H838, the human prostate carcinoma cell line, PC-3, the human glioblastoma astrocytoma, U251MG, the human breast cancer cell line, MCF-7, the human colorectal carcinoma cell line, HCT116, and the human keratinocyte cell line, HaCaT, were used to detect the anti-proliferative effects of the crabrolin and its derivatives in vitro. A total of 8000 cells were seeded in each well of a 96-well plate. After the cells had adhered to the wall, the cells were starved for 4 h. After the starvation, the cells were incubated with different concentrations of the drugs, ranging from 100 µM to 1 nM, for 24 h, with 0.1% Triton X-100 used as a positive control. Next, 10 µL of MTT (3-(4,5-dimethylthiazol-2-yl)-2,5-diphenyltetrazolium bromide) solution (5 mg/mL) was added to each well of the 96-well plate. After 2 h of incubation, 100 μL of DMSO-superseded medium was added to each well to dissolve the formazan crystals. Finally, the absorbance was detected using a Synergy HT plate reader at 570 nm.

[2] = system: human glioblastoma astrocytoma U251MG; experiment: Anti-proliferative assay (MTT); assay type: cell-based; conditions: 24 h
Protocol: as §1

[3] = system: human non-small-cell lung cancer line H838; experiment: Anti-proliferative assay (MTT); assay type: cell-based; conditions: 24 h
Protocol: as §1

[4] = system: human prostate carcinoma cell line PC-3; experiment: Anti-proliferative assay (MTT); assay type: cell-based; conditions: PC3, MTT, 24 h
Protocol: as §1

[5] = system: human keratinocyte cell line HaCaT; experiment: Anti-proliferative assay (MTT); assay type: cell-based; conditions: HaCaT (normal keratinocytes), 24 h
Protocol: as §1

[6] = system: human breast cancer cell line MCF-7; experiment: Anti-proliferative assay (MTT); assay type: cell-based; conditions: MCF-7, MTT, 24 h
Protocol: as §1

E. coli (ATCC 8739) = experiment: Antimicrobial susceptibility assay (MIC/MBC); assay type: cell-based, Escherichia coli; conditions: for MIC: MHB, 37 °C, 20 h
Protocol: (§2) Six bacteria were tested in this experiment to detect the antimicrobial effects of crabrolin and its derivatives, including S. aureus (NCTC 10788), MRSA (NCTC 12493), E. coli (ATCC 8739), K. pneumoniae (ATCC 43816), E. faecium (NTCC-12697), and P. aeruginosa (ATCC 9027). The tested bacteria were cultured in Mueller Hinton broth medium (MHB) with norfloxacin (20 mg/L) as a positive control. All bacteria were incubated at 37 °C overnight and diluted to 5 × 10^5 CFU/mL before treating with the peptides. Stock solutions of 51,200 µM peptides were prepared in phosphate-buffered saline (PBS) and further diluted by a factor of two to 100 µM. Next, 1 µL of each peptide solution was mixed with 99 µL of bacterial subculture in a 96-well plate, and the plate was incubated at 37 °C for 20 h. After culturing, the absorbance of each well in the 96-well plate was analyzed at 550 nm using a Synergy HT plate reader (BioliseBioTek, Winooski, VT, USA). […] Starting with the MIC value, 10 µL of the solution from each well was dripped onto Mueller Hinton agar (MHA) plates. The plates were cultured at 37 °C for 20 h. After culturing, the lowest concentration with no colony growth was regarded as the MBC.

[7] = system: P. aeruginosa (ATCC 9027); experiment: Antimicrobial susceptibility assay (MIC/MBC); assay type: cell-based, Pseudomonas aeruginosa; conditions: for MIC: MHB, 37 °C, 20 h
Protocol: as §2

SMILES | IC50 [1] [µM] | IC50 [2] [µM] | IC50 [3] [µM] | IC50 [4] [µM] | IC50 [5] [µM] | IC50 [6] [µM] | MBC (E. coli (ATCC 8739)) [µM] | MIC (E. coli (ATCC 8739)) [µM] | MBC [7] [µM] | MIC [7] [µM] | IC50 ([2]; listed as crabrolin-TR) [µM] | IC50 ([3]; listed as crabrolin-TR) [µM] | IC50 ([4]; listed as crabrolin-TR) [µM] | IC50 ([6]; listed as crabrolin-TR) [µM]
CC[C@H](C)[C@H](NC(=O)[C@H](CC(C)C)NC(=O)[C@@H]1CCCN1C(=O)[C@H](CC(C)C)NC(=O)[C@@H](N)Cc1ccccc1)C(=O)N[C@@H](CC(C)C)C(=O)N[C@@H](CCCNC(=N)N)C(=O)N[C@@H](CCCCN)C(=O)N[C@H](C(=O)N[C@H](C(=O)N[C@H](C(=O)N[C@@H](C)C(=O)N[C@@H](CC(C)C)C(N)=O)[C@@H](C)O)C(C)C)[C@@H](C)CC [Crabrolin, FLPLILRKIVTAL-NH2] (H-FLPLILRKIVTAL-NH2) | 8.54 | 20.1 | 27.7 | 32.1 | 31.2 | 26.5 | 128 | 32 | 256 | 128 | – | – | – | –
CC[C@H](C)[C@H](NC(=O)[C@H](CCCNC(=N)N)NC(=O)[C@@H]1CCCN1C(=O)[C@H](CC(C)C)NC(=O)[C@@H](N)Cc1ccccc1)C(=O)N[C@@H](CC(C)C)C(=O)N[C@@H](CCCNC(=N)N)C(=O)N[C@@H](CCCCN)C(=O)N[C@H](C(=O)N[C@H](C(=O)N[C@@H](CCCNC(=N)N)C(=O)N[C@@H](C)C(=O)N[C@@H](CC(C)C)C(N)=O)C(C)C)[C@@H](C)CC [Crabrolin-TR, FLPRILRKIVRAL-NH2] (H-FLPRILRKIVRAL-NH2) | 2.81 | 12.4 | 4.64 | 3.94 | 20.9 | 3.46 | 4 | 2 | 8 | 4 | > 10 | < 10 | < 10 | < 10
